The NIST ThermoML archive (doi:10.1021/acs.jced.7b00297)

Assay: mn = molality of the nth substance listed, in mol/kg
Settings: 84.5 kPa, Liquid; for speed of sound: Single path-length method; for mass density: Vibrating tube method

CCCCCCn1cc[n+](C)c1.[Cl-] [1-hexyl-3-methylimidazolium chloride] + O
Settings	mass density, 288.15 K [kg/m3]	mass density, 298.15 K [kg/m3]	mass density, 308.15 K [kg/m3]	mass density, 318.15 K [kg/m3]	speed of sound, 288.15 K [m/s]	speed of sound, 298.15 K [m/s]	speed of sound, 308.15 K [m/s]	speed of sound, 318.15 K [m/s]
m1 = 0.0096	999.203	997.128	994.101	990.268	1468.2	1498.2	1521.1	1537.6
m1 = 0.0296	999.412	997.304	994.252	990.4	1471.7	1501.3	1523.7	1539.8
m1 = 0.0585	999.713	997.562	994.471	990.58	1476.8	1505.7	1527.4	1543
m1 = 0.0734	999.867	997.692	994.583	990.681	1479.4	1507.9	1529.3	1544.6
m1 = 0.0999	1000.15	997.932	994.787	990.859	1483.9	1511.7	1532.6	1547.3
m1 = 0.1212	1000.37	998.125	994.95	990.996	1487.4	1514.8	1535.2	1549.6
m1 = 0.1542	1000.73	998.421	995.204	991.215	1493	1519.5	1539.2	1553
m1 = 0.2244	1001.47	999.058	995.748	991.681	1504	1528.9	1547.3	1559.8
m1 = 0.2863	1002.12	999.62	996.227	992.089	1513.8	1537.3	1554.3	1565.8
m1 = 0.469	1004.08	1001.27	997.628	993.281	1540.2	1559.7	1573.2	1581.6
m1 = 0.8901	1008.38	1004.89	1000.7	995.899	1591.4	1602.4	1608.7	1610.9
